Experimental data: ChEMBL document CHEMBL3102731, “Structure-activity relationship studies and biological characterization of human NAD(+)-dependent 15-hydroxyprostaglandin dehydrogenase inhibitors” (Bioorg Med Chem Lett, 2014); call rule not given here

What was measured:
[1] = Passive permeability of the compound at pH 7.4 by PAMPA; assay type: ADME
[2] = biological target: L-lactate dehydrogenase B chain (Homo sapiens, UniProt P07195); assay: Inhibition of LDHB (unknown origin) using sodium pyruvate as substrate at 0.46 to 57.5 uM after 15 mins by fluorescence assay
Sequence of L-lactate dehydrogenase B chain (P07195 whole entry): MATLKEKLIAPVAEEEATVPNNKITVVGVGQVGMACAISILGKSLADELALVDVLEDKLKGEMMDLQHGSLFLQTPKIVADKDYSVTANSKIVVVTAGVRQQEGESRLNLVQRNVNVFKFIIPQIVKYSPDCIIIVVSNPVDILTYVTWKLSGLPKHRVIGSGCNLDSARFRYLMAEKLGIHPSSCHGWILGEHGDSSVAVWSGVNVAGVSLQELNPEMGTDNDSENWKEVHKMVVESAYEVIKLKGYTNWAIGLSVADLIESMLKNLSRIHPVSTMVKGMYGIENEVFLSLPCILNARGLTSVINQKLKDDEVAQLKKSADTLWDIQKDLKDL

[3] = Kinetic solubility of the compound in PBS buffer at pH 7.4; assay type: physicochemical
LNCaP [4] = assay: Induction of PGE2 production in human LNCAP cells at 41.9 nM to 100 uM after 16 hrs by HTRF assay relative to control; assay type: functional
[5] = biological target: T1, 15-hydroxyprostaglandin dehydrogenase [NAD(+)] (Homo sapiens, UniProt P15428); assay: Inhibition of human HPGD using PGE2 as substrate after 15 mins by fluorescence assay
T1 sequence (P15428 whole entry): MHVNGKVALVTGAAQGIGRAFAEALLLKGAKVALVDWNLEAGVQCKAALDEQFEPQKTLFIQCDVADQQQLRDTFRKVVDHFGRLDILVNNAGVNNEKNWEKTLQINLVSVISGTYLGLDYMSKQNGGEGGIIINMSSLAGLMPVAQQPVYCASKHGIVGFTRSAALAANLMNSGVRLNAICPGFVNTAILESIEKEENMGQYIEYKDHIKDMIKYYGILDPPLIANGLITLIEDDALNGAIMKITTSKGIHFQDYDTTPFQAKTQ

[6] = biological target: T2, Peroxisomal multifunctional enzyme type 2 (Homo sapiens, UniProt P51659); assay: Inhibition of HSD17beta4 (unknown origin) using NAD+/estradiol as substrate at 324 pM to 57.2 uM after 15 mins by UV-fluorescence assay
T2 sequence (P51659 whole entry): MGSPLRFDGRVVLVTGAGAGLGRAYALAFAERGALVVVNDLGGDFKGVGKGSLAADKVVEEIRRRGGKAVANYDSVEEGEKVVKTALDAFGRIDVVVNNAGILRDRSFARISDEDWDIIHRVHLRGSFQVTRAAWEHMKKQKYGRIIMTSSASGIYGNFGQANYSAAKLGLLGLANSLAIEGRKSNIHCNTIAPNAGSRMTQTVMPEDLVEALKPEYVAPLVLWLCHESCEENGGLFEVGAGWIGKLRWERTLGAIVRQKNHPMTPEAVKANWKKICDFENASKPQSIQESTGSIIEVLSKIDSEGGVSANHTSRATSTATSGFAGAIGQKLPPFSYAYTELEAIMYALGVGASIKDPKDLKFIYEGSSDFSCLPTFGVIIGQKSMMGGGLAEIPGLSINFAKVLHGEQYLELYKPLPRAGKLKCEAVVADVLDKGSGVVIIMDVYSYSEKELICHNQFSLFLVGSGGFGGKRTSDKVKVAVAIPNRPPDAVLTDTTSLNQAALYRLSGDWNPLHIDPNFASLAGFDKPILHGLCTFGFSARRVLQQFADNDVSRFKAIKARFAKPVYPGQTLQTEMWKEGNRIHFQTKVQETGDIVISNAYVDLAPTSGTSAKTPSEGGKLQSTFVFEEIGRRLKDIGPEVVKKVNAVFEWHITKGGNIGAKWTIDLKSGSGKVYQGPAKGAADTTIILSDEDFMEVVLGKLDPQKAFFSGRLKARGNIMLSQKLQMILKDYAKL

A549 [7] = assay: Induction of PGE2 production in human A549 cells at 775 pM to 45.8 uM after 4 to 20 hrs by HTRF assay relative to control; assay type: functional
LNCaP [8] = assay: Induction of PGE2 production in human LNCAP cells assessed as half-maximal activation concentration after 16 hrs by HTRF assay; assay type: functional, cell-based
Liver microsome = assay: Half life in rat liver microsomes in presence of NADPH; assay type: ADME
[9] = biological target: Glyceraldehyde-3-phosphate dehydrogenase (Oryctolagus cuniculus, UniProt P46406); assay: Inhibition of rabbit muscle GAPDH using glyceraldehyde-3-phosphate as substrate at 324 pM to 57.2 uM by fluorescence assay
Sequence of Glyceraldehyde-3-phosphate dehydrogenase (P46406 whole entry): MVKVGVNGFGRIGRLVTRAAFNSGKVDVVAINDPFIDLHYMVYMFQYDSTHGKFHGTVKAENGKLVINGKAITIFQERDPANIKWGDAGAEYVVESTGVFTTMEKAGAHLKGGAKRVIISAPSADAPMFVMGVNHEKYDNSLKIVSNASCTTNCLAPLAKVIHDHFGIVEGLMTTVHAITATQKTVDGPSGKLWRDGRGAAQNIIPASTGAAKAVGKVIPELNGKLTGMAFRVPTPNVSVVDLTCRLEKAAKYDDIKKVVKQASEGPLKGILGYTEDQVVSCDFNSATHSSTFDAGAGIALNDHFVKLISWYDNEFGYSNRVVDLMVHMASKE

A549 [10] = assay: Induction of PGE2 production in human A549 cells assessed as concentration required for half-maximal activation after 4 to 20 hrs by HTRF assay; assay type: functional, cell-based
[11] = biological target: T3, Aldehyde dehydrogenase 1A1 (Homo sapiens, UniProt P00352); assay: Inhibition of ALDH1A1 (unknown origin) using NAD+/propionaldehyde as substrate after 15 mins by UV-fluorescence assay
T3 sequence (P00352 whole entry): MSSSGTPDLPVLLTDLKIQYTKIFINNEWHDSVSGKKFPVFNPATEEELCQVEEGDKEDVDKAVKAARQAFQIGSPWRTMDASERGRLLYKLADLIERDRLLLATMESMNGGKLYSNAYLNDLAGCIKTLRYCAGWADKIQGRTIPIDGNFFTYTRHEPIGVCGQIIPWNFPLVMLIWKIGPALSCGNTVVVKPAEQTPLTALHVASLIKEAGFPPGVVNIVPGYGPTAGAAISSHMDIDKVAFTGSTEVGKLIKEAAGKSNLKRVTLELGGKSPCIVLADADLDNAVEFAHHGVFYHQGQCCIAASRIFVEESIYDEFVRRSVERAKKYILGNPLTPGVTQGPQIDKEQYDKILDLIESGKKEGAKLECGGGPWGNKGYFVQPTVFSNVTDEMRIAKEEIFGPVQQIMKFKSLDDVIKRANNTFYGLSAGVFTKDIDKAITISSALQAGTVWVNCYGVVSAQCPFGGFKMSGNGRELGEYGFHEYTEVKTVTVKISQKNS

[12] = biological target: L-lactate dehydrogenase A chain (Homo sapiens, UniProt P00338); assay: Inhibition of LDHA (unknown origin) using sodium pyruvate as substrate at 0.46 to 57.5 uM after 15 mins by fluorescence assay

| SMILES | permeability [1] [×10⁻⁶ cm/s] | IC50 [2] | Kinetic_solubility [3] [µM] | Activity (LNCaP [4]) [%] | IC50 [5] [nM] | IC50 [6] | Activity (A549 [7]) [%] | AC50 (LNCaP [8]) [nM] | t1/2 (Liver microsome) [min] | IC50 [9] | AC50 (A549 [10]) [nM] | IC50 [11] [nM] | IC50 [12] |
| --- | --- | --- | --- | --- | --- | --- | --- | --- | --- | --- | --- | --- | --- |
| O=C(c1ccc2c(c1)ncn2-c1cccc(C(F)(F)F)c1)N1CCCCC1 | 1350 | Not Active | > 55 | 70 | 48 | Not Active | 173 | 2800 | 4.4 | Not Active | 2640 | 6810 | Not Active |
| Cc1cc(-c2nnc3n2CCCCC3)c(C)n1-c1ccc(Cl)c(Cl)c1 | 1650 | Not Active | 32 | 105 | 22 | Not Active | 110 | 352 | 1.9 | Not Active | 296 | 607 | Not Active |
| Cc1cc(-c2nnc3n2CCCCC3)c(C)n1-c1cccc(Cl)c1 | 1100 | Not Active | 37 | 68 | 34 | Not Active | 114 | 558 | 2 | Not Active | 590 | 4820 | Not Active |
| COc1ccc(-n2cnc3cc(C(=O)N4CCCCC4)ccc32)cc1 | 624 | Not Active | > 50 | 69 | 19 | Not Active | 174 | 884 | 23 | Not Active | 662 | 1360 | Not Active |
